Measurements as given in paper PMC5478869, “New Hydroxycinnamic Acid Esters as Novel 5-Lipoxygenase Inhibitors That Affect Leukotriene Biosynthesis” (Mediators of Inflammation, 2017).

How the values were obtained:
[1] = test system: arachidonic acid release; assay: Arachidonic acid release from thapsigargin-stimulated PMNL (GC-MS); format: cell-based, human; details: 1 μM compound, 1 μM thapsigargin 5 min, vs control (0.5% DMSO)
Protocol: Quantification of arachidonic acid release from cellular membranes was performed as previously described. Briefly, freshly isolated PMNL (10^7 cells/ml, in HBSS containing 1.6 mM CaCl2 and 0.1% BSA) were incubated with adenosine deaminase (0.3 U/ml) and test compounds for 5 min at 37°C. Stimulation was initiated with the addition of 1 μM thapsigargin, followed by incubation at 37°C for 5 min. The reactions were stopped with the addition of two volumes of cold MeOH and 300 ng of arachidonic acid-d8 (Cayman Chemicals) as internal standard. The samples were stored at −20°C overnight and then centrifuged the next day at 1000 g for 10 min. The supernatants were diluted with four volumes of acidified water (0.1%) then processed on an octadecyl (C18) column. Samples were eluted with the addition of 3 ml of MeOH and dried under nitrogen. Pentafluorobenzylesters were prepared with the addition 50 μl N,N-diisopropylethylamine (20% in acetonitrile) and 50 μl of […] (20% in acetonitrile). Samples were heated for 40 min at 40°C, then dried under nitrogen and resuspended in 100 μl of hexane. Samples were quantified by negative ion chemical ionization gas chromatography/mass spectrometry using TraceGC ultra column (Thermo) and a Polaris Q mass spectrometer (Thermo).
Figure 4 The impact of test compounds on the liberation of arachidonic acid in stimulated PMNL. Human PMNL were incubated with test compounds (1 μM) or their diluent (control, DMSO 0.5%) for 5 min. Stimulation was then initiated with the addition of 1 μM thapsigargin, followed by an incubation at 37°C for 5 min. The reactions were stopped with the addition of two volumes of cold MeOH and 300 ng of arachidonic acid-d8, then samples were stored overnight at −20°C. Free arachidonic acid was first extracted on octadecyl columns, then pentafluorobenzylesters of arachidonic acid were prepared and samples were measured on GC-MS. Spontaneous release of AA was also measured in absence of thapsigargin (nonactivated, NA). ^∗Different from control as determined by one-way ANOVA with Dunnett's multiple comparison test (p < 0.05). Data are expressed as means ± SEM of at least 3 independent experiments.

[2] = biological target: T1, platelet 12-lipoxygenase (12-LO) (Homo sapiens, UniProt P18054); assay: Platelet activation (A23187), biosynthesis of 12-HETE; format: cell-based; details: 10 μM A23187 5 min
T1 construct: endogenous in cells; host or cells: platelets isolated from platelet-rich plasma
T1 sequence (P18054 1-663): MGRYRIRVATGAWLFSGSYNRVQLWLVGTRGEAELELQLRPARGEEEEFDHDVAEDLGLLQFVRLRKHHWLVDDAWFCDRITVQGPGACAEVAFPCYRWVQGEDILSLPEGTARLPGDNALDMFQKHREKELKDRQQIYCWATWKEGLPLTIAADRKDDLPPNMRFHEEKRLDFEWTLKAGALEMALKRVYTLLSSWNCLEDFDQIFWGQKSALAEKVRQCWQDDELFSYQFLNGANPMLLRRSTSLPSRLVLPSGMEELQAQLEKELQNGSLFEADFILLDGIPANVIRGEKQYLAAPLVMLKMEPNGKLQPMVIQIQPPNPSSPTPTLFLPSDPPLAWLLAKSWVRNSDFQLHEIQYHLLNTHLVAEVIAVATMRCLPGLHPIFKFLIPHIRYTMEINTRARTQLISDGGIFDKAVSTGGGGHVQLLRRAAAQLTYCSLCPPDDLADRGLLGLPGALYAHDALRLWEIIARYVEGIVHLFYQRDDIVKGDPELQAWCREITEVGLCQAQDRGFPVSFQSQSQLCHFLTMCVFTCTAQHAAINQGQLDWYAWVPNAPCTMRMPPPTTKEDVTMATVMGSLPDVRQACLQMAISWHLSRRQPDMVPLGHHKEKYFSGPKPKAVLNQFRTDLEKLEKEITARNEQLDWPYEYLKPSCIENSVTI
Protocol: Polymorphonuclear leukocytes (PMNL) were isolated as previously described. Briefly, whole blood was collected (with anticoagulant citrate dextrose (ACD)) and then centrifuged at 500 g for 10 min. Platelet-rich plasma (PRP) was set aside for platelet isolation (see below), and erythrocytes were removed by dextran sedimentation. After a centrifugation step at 900 g × 20 min at room temperature on a lymphocyte separation medium cushion (density, 1.077 g/ml) (Wisent), PMNL were obtained (>96%) followed by hypotonic lysis of the remaining erythrocytes. PMNL were counted and resuspended at 10^7 cells/ml in HBSS supplemented with 1.6 mM CaCl2. PRP was processed as previously described for platelet isolation. Briefly, PRP was centrifuged at 400 g for 2 min at room temperature to remove the remaining erythrocytes. The supernatant was then centrifuged at 1300g for 10 min to pellet platelets. Cells were resuspended in Tyrode Buffer pH 7.4 (134 mM NaCl, 2.9 mM KCl, 0.34 mM Na2HPO4, 12 mM NaHCO3, 20 mM HEPES, 1 mM MgCl2, 5 mM glucose, and 0.5 mg/ml BSA) at 3 × 10^8 cells/ml in the presence of 5 mM CaCl2.
Platelets (3 × 10^8 cells/ml) were preincubated with various test compounds at indicated concentrations for 5 min at 37°C. Platelet activation was initiated with the addition of 10 μM of calcium ionophore A23187 (Sigma-Aldrich) followed by a 5 min incubation time at 37°C. Reactions were stopped with the addition of two volumes of cold MeOH:MeCN (1 : 1) containing PGB2 (100 ng/ml) as internal standard. Samples were stored overnight at −20°C and were then centrifuged, the supernatant was dried under nitrogen, and the samples were resuspended in 30% methanol and analyzed by RP-HPLC as indicated above.
Figure 5 The inhibitory effects of the test compounds of the biosynthesis of 5-LO products in stimulated whole blood (a) and the biosynthesis of 12-lipoxygenase products in platelets (b). (a) Whole blood was incubated in presence of various compounds (1 μM and 5 μM) or with their diluent (control, DMSO 0.5%) for 5 min, then stimulated with opsonized zymosan (5 mg/ml) for 30 min at 37°C. Blood was then centrifuged and plasma was collected and added to 3.5 volumes of MeOH:CH3CN (1 : 1). Samples were processed for analysis by RP-HPLC for total 5-LO products quantification. Total 5-LO products measured represent the sum of LTB4, its trans isomers, 20-COOH and 20-OH-LTB4, and 5-hydroxyeicosatetraenoic acid. (b) Platelets were incubated for 5 min in presence of test compounds (1 μM and 3 μM) then biosynthesis of 12-HETE was initiated with the addition of 10 μM of calcium ionophore A23187. Reactions were stopped with the addition of two volumes of MeOH:MeCN (1 : 1 v/v). Samples were processed for analysis by RP-HPLC for 12-hydroxyeicosatetraenoic acid (12-HETE) quantification. ^∗Different from control as determined by one-way ANOVA with Dunnett's multiple comparison test (p < 0.05). Data are expressed as means ± SEM of at least 3 independent experiments.
Having identified compounds that inhibit the biosynthesis of lipid mediators generated via the 5-LO pathway, their ability to inhibit platelet 12-lipoxygenase (12-LO) was assessed to determine whether they show specificity.

Structure (SMILES) | Inhibition of cellular arachidonic acid release in stimulated PMNL [1] | Inhibition of biosynthesis of 12-HETE in platelets ([2]; 1 μM compound) | Inhibition of biosynthesis of 12-HETE in platelets ([2]; 3 μM compound)
O=C(/C=C/c1ccc(O)c(O)c1)OCCc1ccccc1 [CAPE (2), Caffeic acid phenethyl ester, reference compound] | significantly inhibited cellular arachidonic acid release | significantly inhibited the biosynthesis of 12-HETE | near-complete inhibition
C=C(C)CCOC(=O)/C=C/c1ccc(O)c(O)c1 [Compound 9] | significantly inhibited cellular arachidonic acid release | significantly inhibited the biosynthesis of 12-HETE | near-complete inhibition
O=C(/C=C/c1ccc(O)c(O)c1)OCCCc1ccccc1 [Compound 13] | significantly inhibited cellular arachidonic acid release | significantly inhibited the biosynthesis of 12-HETE | near-complete inhibition
O=C(/C=C/c1ccc(O)c(O)c1)OCCc1ccc(F)cc1 [Compound 14] | failed to significantly inhibit the release of cellular membrane arachidonic acid | significantly inhibited the biosynthesis of 12-HETE | near-complete inhibition
Cc1ccc(CCOC(=O)/C=C/c2ccc(O)c(O)c2)cc1 [Compound 15] | failed to significantly inhibit the release of cellular membrane arachidonic acid | significantly inhibited the biosynthesis of 12-HETE | near-complete inhibition
COc1ccc(CCOC(=O)/C=C/c2ccc(O)c(O)c2)cc1 [Compound 16] | failed to significantly inhibit the release of cellular membrane arachidonic acid | failed to significantly affect the biosynthesis of 12-HETE | significant inhibition
O=C(/C=C/c1ccc(O)c(O)c1)OCC(c1ccccc1)c1ccccc1 [Compound 19] | significantly inhibited cellular arachidonic acid release | failed to significantly affect the biosynthesis of 12-HETE | significant inhibition
